Assay results taken from article PMC7273348, “Unraveling a Tangled Skein: Evolutionary Analysis of the Bacterial Gibberellin Biosynthetic Operon” (mSphere, 2020).

Target: T1, ReIDS2 (ReGGPS2) (Rhizobium etli, UniProt Q8KLD2)
T1 construct: gene RHE_PD00244; full-length ORF in pET101/D-TOPO, C-terminal 6xHis tag, E. coli BL21 Star
T1 sequence (Q8KLD2 1-309): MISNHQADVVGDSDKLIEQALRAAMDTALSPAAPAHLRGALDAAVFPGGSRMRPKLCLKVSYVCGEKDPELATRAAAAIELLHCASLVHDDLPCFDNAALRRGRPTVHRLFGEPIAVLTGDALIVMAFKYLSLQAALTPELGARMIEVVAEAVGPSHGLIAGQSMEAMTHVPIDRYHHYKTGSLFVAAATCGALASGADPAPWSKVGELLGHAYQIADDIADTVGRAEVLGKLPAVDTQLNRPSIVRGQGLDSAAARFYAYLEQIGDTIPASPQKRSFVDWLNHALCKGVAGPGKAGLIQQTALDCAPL
Experiment: LC-MS/MS detection of GGPP product
Format: biochemical
Details: 50 uM IPP + 50 uM DMAPP; MOPSO pH 7.2, 10 mM MgCl2; 30 C, 2 h; main product GGPP

For `CC(C)=CCOP(=O)(O)OP(=O)(O)O` [DMAPP], the “LC-MS/MS detection of GGPP product” value was “produced GGPP as its major product from the universal isoprenoid precursors IPP and DMAPP”.
